Like-named read-outs stand apart in the source and are kept apart here.
Columns and labels:
[1] = Cell viability of A3.01 cells; format: cell-based; conditions: human
Protocol: The p24 level from the cell supernatant was subsequently determined using a p24 […] kit (PerkinElmer). In parallel, the cell viability was determined without viral infection because of the viral cytopathic effect. […] In parallel, cell viability was determined. The data (A and B) are presented as the mean ± SD (n = 3). (C) PBMCs (4 × 10^5) infected with HIV-AD8 at an MOI of 0.1 were treated with 1.5 µM of the compounds or ARVs for 3 days. The levels of p24 and cell viability were subsequently determined. (D) J1.1 cells were cultured with the compounds ([…]) under 50 ng/mL phorbol myristate acetate (PMA) treatment for 2 days. The level of p24 was subsequently determined. (E) J-Lat 6.3 cells were treated with the compounds (1.5 µM) under 1 µg/mL of PMA for 2 days. The GFP-positive cell population was analyzed using flow cytometry. The data are represented as a value relative to the DMSO-treated vehicle (D) and a percent of the GFP^+ cell population (E) as mean ± SD (n = 3).
The inhibitory effects of the compounds on viral replication were determined with some minor modifications, as previously described ([12], [62]). […] PBMCs (4 × 10^5) pre-activated with PHA-M for 3 days were washed with fresh media to remove excess PHA-M and subsequently infected with HIV-1NL4-3 or HIV-1AD8 or PIs-resistant HIV-1 strains as A3.01 infection. After infection, the infectious media were replaced with fresh media supplemented with international 10 units (IU)/mL of IL-2 and the indicated compounds. At 72 h after infection, the inhibitory effect of the compounds on viral replication was determined by measuring the p24 amount, an HIV capsid protein, using an HIV-1 p24 […] kit (PerkinElmer, Waltham, MA, USA). Cell viability was determined as described above. The inhibitory effects on provirus reversing in J1.1 and J-Lat 6.3 cells were determined as previously described ([12], [41], [63]) with some minor modifications. Briefly, 5 × 10^4 persistently HIV-1-infected J1.1 or J-Lat 6.3 cells were cultured in either the presence or absence of the compounds at a final concentration of 1.5 µM and treated with PMA (50 ng/mL for J1.1 cells, 1 µg/mL for J-Lat 6.3 cells). Two days after treatment, the levels of viral production were determined using p24 […] for J1.1 cells and flow cytometry analysis for GFP-expressing J-Lat 6.3 cells.

HIV-1NL4-3 = experiment: HIV-1 infectivity in TZM-bl cells (F-Luc); format: cell-based
Protocol: The TZM-bl cells (also referred to as JC53BL-13) expressing human CD4, CXCR4, and CCR5 carrying the F-Luc and lacZ genes downstream of the HIV-1 LTR promoter ([60]) were used to determine the inhibitory effect of the compounds on HIV-1 infection, as previously described ([11], [12], [61]). In brief, 1 × 10^4 cells were cultured in 96-well plates for 24 h and subsequently treated with compounds at the indicated concentrations. Without replacement of the culture medium, the cells were subsequently infected with the HIV-1NL4-3 wild-type or ARV-resistant HIV-1 strains at an MOI of 1 to determine the exact inhibitory effect of compounds on a single-round infection. After 48 h, the inhibitory effect of the compounds was determined using a Bright Glo luciferase assay kit (Promega) or β-Galactosidase Enzyme Assay kit (Promega). The infectivity data were presented as a percentage relative to the dimethyl sulfoxide (DMSO) control (vehicle). Cell viability was determined using the resazurin-based PrestoBlue Cell Viability Reagent (Thermo Fisher Scientific, Waltham, MA, USA) following the manufacturer’s instructions.

[2] = system: proviral DNA integrated to the host chromosome; experiment: Integrated proviral DNA, nested Alu-PCR in A3.01 cells; format: cell-based, HIV-1; conditions: compounds 5 µM, 40 h after infection
Protocol: Fig 5 (A) Time-of-addition assay. […] Subsequently, the cells were treated with the compounds at the indicated time points (0, 1, 2, 4, 6, 8, 10, 12, 24, 30, 36, 42, and 48 h) after HIV-1 infection. The final concentrations of compounds are described in Materials and Methods. Viral activity according to the timing of drug addition was measured as F-Luc activity at 54 h after infection. The relative activities are represented as the mean ± SD (n = 3) compared with the activity observed 54 h post-infection. The relative time frames associated with each HIV-1 infection step are defined based on the time frame of susceptibility to the drug that blocks that particular infection step. […] At 16 h after infection, the viral reverse transcription (RT) product (viral cDNA) level was determined by quantitative real-time PCR (RT-qPCR) using gag and 18S rRNA primer sets and represented as the mean ± SD (n = 3) normalized against the amount of the 18S rRNA compared with the DMSO control. **P < 0.01 compared with the vehicle (DMSO). (C) An in vitro integrase (IN) assay was performed with 10 µM of the indicated compounds following the manufacturer’s protocol. **P < 0.01 compared with vehicle (DMSO). (D) A3.01 cells were infected with HIV-1 upon treatment with the indicated compounds (5 µM) and ARVs (EFV and DTG) as the experimental controls. At 40 h after infection, cellular chromosomal DNA was purified, and the integrated proviral DNA was detected through nested Alu-PCR amplification.
The activity of HIV-1 RT was determined as previously described with some minor modifications ([66][–][68]). In brief, HIV-1NL4-3 obtained from plasmid transfection was treated with DNase I (2.5 U/mL) for 2 h at 37°C to remove the plasmid DNA. […] Sixteen hours after infection, the cell cytosolic DNA was isolated under RNase A treatment, and the RT products (cytosolic viral cDNA) were quantified using RT-qPCR and the following primers: gag forward, 5′-[…]-3′, gag reverse, 5′-[…]-3′; 18S rRNA forward, 5′-[…]-3′, 18S rRNA reverse, 5′-[…]-3′. The relative levels of RT products were analyzed using the ΔΔCt-method, as described above. In vitro integrase activity was determined using an HIV-1 integrase assay kit (XpressBio, Frederick, MD, USA) as previously described ([12]). In brief, a 96-well plate coated with donor substrate DNA was blocked, and HIV-1 integrase was then added to the plate. Subsequently, the compounds and target substrate DNA were added to the plate and incubated for 30 min at 37°C. The plate was washed and subsequently incubated with horse radish peroxidase. Integrase activity was measured by the peroxidase activity with the substrate at an optical density of 450 nm. The experiment was performed in triplicates. Detection of integrated proviral DNA was performed as previously described ([69]) with some minor modifications. […] Chromosomal DNA was purified using the G-Spin DNA extraction kit (Intron Bio Tech, Seongnam-si, Gyeonggi-do, Republic of Korea). The integrated proviral HIV-1 DNA was detected by nested Alu-PCR amplification using the following primers: first round PCR, Alu forward, 5′-[…]-3′, pol reverse, 5′-[…]-3′; second round PCR, gag forward, 5′-[…]-3′, pol reverse. gapdh was used as the control gene.

[3] = A3.01 cells, absence of HIV-1 infection, mean ± SD, read-out: CC50
[4] = Human immunodeficiency virus 1, TZM-bl, Table S1, WT virus, TZM-bl, read-out: EC50
[5] = Human immunodeficiency virus 1, TZM-bl, 48 h, Table S1, WT virus, TZM-bl, fivefold serial dilutions, MOI 1, 48 h, read-out: EC50

CC(C)[C@]12O[C@H]1[C@@H]1O[C@]13[C@]1(O[C@H]1C[C@H]1C4=C(CC[C@@]13C)C(=O)OC4)[C@@H]2O [triptolide, reference compound]
CC50 at 3 days [1, 3]: 220 ± 40 nM
EC50 (HIV-1NL4-3; Human immunodeficiency virus 1, TZM-bl, 48 h, TZM-bl cells infected with HIV-1NL4-3 at MOI 1, 48 h, read-out: EC50): 0.38 ± 0.07 nM
SI (CC50/EC50) (HIV-1NL4-3; TZM-bl cells): 52.63

C[C@@H]1CCO[C@H]2Cn3cc(C(=O)NCc4ccc(F)cc4F)c(=O)c(O)c3C(=O)N12 [DTG, dolutegravir, reference compound]
CC50 at 3 days [1]: 7670 ± 610 nM
nested Alu-PCR band for integrated proviral DNA [2]: not detected
EC50 (HIV-1NL4-3; [4]): 1 nM

Cc1[nH]c2ccc(-c3nnc(SCC(=O)N4CCCCC4)o3)cc2c1C [Compound 9, 2-((5-(2,3-Dimethyl-1H-indol-5-yl)-1,3,4-oxadiazol-2-yl)thio)-1-(piperidin-1-yl)ethan-1-one]
CC50 at 3 days [1]: 56100 ± 4480 nM
nested Alu-PCR band for integrated proviral DNA [2]: observed
EC50 (HIV-1NL4-3; Human immunodeficiency virus 1, TZM-bl, 48 h, TZM-bl cells infected with HIV-1NL4-3 at MOI 1, 48 h, F-Luc, mean ± SD, read-out: EC50): 170 ± 20 nM
EC50 (HIV-1NL4-3; [5]): 130 ± 20 nM
EC90 (HIV-1NL4-3; Human immunodeficiency virus 1, TZM-bl cells, read-out: approximate EC90): ~1500 nM
SI (CC50/EC50) (HIV-1NL4-3; TZM-bl cells): 371.76

O=C1Nc2ccc(Cl)cc2[C@@](C#CC2CC2)(C(F)(F)F)O1 [EFV, efavirenz, reference compound]
CC50 at 3 days [1, 3]: 22700 ± 1650 nM
nested Alu-PCR band for integrated proviral DNA [2]: not detected
EC50 (HIV-1NL4-3; [4]): < 1 nM

Cc1[nH]c2ccc(-c3nnc(SCC(=O)N4CCCC4)o3)cc2c1C [Compound 13, 2-((5-(2,3-Dimethyl-1H-indol-5-yl)-1,3,4-oxadiazol-2-yl)thio)-1-(pyrrolidin-1-yl)ethan-1-one]
CC50 at 3 days [1]: 47600 ± 1880 nM
nested Alu-PCR band for integrated proviral DNA [2]: observed
EC50 (HIV-1NL4-3; Human immunodeficiency virus 1, TZM-bl, 48 h, TZM-bl cells infected with HIV-1NL4-3 at MOI 1, 48 h, F-Luc, mean ± SD): 180 ± 50 nM
EC50 (HIV-1NL4-3; [5]): 200 ± 20 nM
SI (CC50/EC50) (HIV-1NL4-3; TZM-bl cells): 196.33
EC50 (HIV-1NL4-3; TZM-bl cells infected with HIV-1NL4-3 at MOI 1, 48 h, F-Luc, mean ± SD, read-out: EC50): 240 ± 30 nM
